ChEMBL document CHEMBL1147361, “Microbial transformation of L-696,474, a novel cytochalasin as an inhibitor of HIV-1 protease” (J Nat Prod, 1993)

Target: Protease (Human immunodeficiency virus 1, UniProt Q9YQ12)
Assay: Inhibition of HIV1 protease

Sequence of Protease (Q9YQ12 whole entry): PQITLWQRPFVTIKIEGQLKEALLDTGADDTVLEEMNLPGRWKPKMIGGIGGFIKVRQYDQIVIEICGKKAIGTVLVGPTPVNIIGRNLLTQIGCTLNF

Structure (SMILES): C=C1[C@@H](C)[C@H]2[C@H](Cc3ccc(O)cc3)NC(=O)[C@]23[C@H](OC(C)=O)/C=C/[C@@H](C)C[C@@H](CO)C/C=C/[C@H]3[C@@H]1O
- IC50: 35 µM

Structure (SMILES): C=C1[C@@H](C)[C@H]2[C@H](Cc3ccccc3)NC(=O)[C@]23[C@H](OC(C)=O)/C=C/[C@@H](C)C[C@@](O)(CO)C/C=C/[C@H]3[C@@H]1O
- IC50: 45 µM

Structure (SMILES): C=C1[C@@H](C)[C@H]2[C@H](Cc3ccccc3)NC(=O)[C@]23[C@H](OC(C)=O)/C=C/[C@@H](C)C[C@@H](CO)C/C=C/[C@H]3[C@@H]1O
- IC50: 22 µM

Structure (SMILES): C=C1[C@@H](C)[C@H]2[C@H](Cc3ccc(O)c(O)c3)NC(=O)[C@]23[C@H](OC(C)=O)/C=C/[C@@H](C)C[C@@H](CO)C/C=C/[C@H]3[C@@H]1O
- IC50: > 50 µM

Structure (SMILES): C=C1[C@@H](C)[C@H]2[C@H](Cc3cccc(O)c3)NC(=O)[C@]23[C@H](OC(C)=O)/C=C/[C@@H](C)C[C@@H](CO)C/C=C/[C@H]3[C@@H]1O
- IC50: 38 µM

Structure (SMILES): C=C1[C@@H](C)[C@H]2[C@H](Cc3ccccc3)NC(=O)[C@]23[C@H](OC(C)=O)/C=C/[C@@H](C)C[C@@H](C)C/C=C/[C@H]3[C@@H]1O
- IC50: 3 µM

Structure (SMILES): C=C1[C@@H](C)[C@H]2[C@H](Cc3cccc(O)c3)NC(=O)[C@]23[C@H](OC(C)=O)/C=C/[C@@H](C)C[C@@](O)(CO)C/C=C/[C@H]3[C@@H]1O
- IC50: > 50 µM
